Source: patent US11649268B2, “Fibronectin-binding peptides for use in tumor or fibrosis diagnosis and therapy” (priority 2016, dated 2023)
Entries after “also recorded” stand apart in the source; their conditions may differ. Like-named read-outs stand apart in the source and are kept apart here. Where a SMILES comes first, the peptide text is derived from it. Primed or numbered codes have the meaning given here. Where no end group is shown, it is not given here. The star is where a group is joined. X1 = O=C(O)CN1CCN(CC(=O)O)CCN(C(CCC(=O)NCCN2C(=O)CC(*)C2=O)C(=O)O)CC1; NODAGA′ = NODAGA chelator (maleimide-conjugated) for radiolabelling; Alexa 488 = Alexa Fluor 488 fluorescent dye

Tests used:
[1] = tested on: fibrillar Fn in fibroblast ECM; experiment: Binding to fibrillar Fn in fibroblast-assembled ECM (colocalization); type: cell-based; conditions: normal human dermal fibroblasts, 2 days ECM, 5 μg/ml peptide, 1 hour
Method: Fibroblast ECM samples (FIG. 2C) were acquired with the same microscope using an oil immersion 1.45 NA 60× objective with a pixel resolution of 1024×1024.
To achieve this, normal human dermal fibroblasts (PromoCell, Heidelberg, Germany) were cultured in alpha minimum essential medium (α-MEM) with 10% fetal bovine serum (FBS) from BioWest, Nuaillé, France, and split before reaching confluence. Cells were seeded onto Fn-coated 8-well chambered coverglasses (Lab-Tek, Nalgene Nunc, Thermo Scientific, Waltham, Mass., USA) at a density of 30×10^3 cells per cm^2 and allowed to attach to the surface before medium exchange to medium containing 50 μg/ml unlabeled Fn. Cells were cultured for 48 hours. Fibronectin was then stained using a rabbit polyclonal anti-fibronectin antibody (ab23750, abcam, Cambridge, UK) and 5 μg/ml FnBPA5-Alexa488 respectively scr-FnBPA5-Alexa488 peptide for 1 hour before fixation with a 4% paraformaldehyde solution in PBS. After fixation cells were permeabilized for 10 minutes with PBS containing 0.01% Triton X-100. After a washing step samples were blocked in 4% BSA and 4% donkey serum for 1 hour at room temperature. Samples were then incubated for 1 hour with a donkey anti-rabbit Alexa 546 (Invitrogen) secondary antibody and Phalloidin-633 (Invitrogen, Carlsbad, Calif., USA). Before imaging cell nuclei were stained using DAPI. […]

[2] = Method: To assess in vitro plasma stability 12 MBq ^111In-[FnBPA5-NODAGA] and ^111In-[scraFnBPA5-NODAGA] were incubated with 400 μL human blood plasma at 37° C. At different time points (0, 0.25, 0.5, 1, 2, 48 and 72 hours) 40 μL of plasma was taken out and precipitated by the addition of 200 μL EtOH, acetonitrile, 0.1% TFA.
[3] = tested on: manually pulled relaxed Fn fibers (fibrillar Fn); experiment: Manually pulled Fn fiber binding assay (confocal microscopy); design: species or system human; conditions: for binding to manually pulled Fn fibers (peptide signal): confocal microscopy, peptide signal vs Fn-Cy5
Source text: Manually pulled Fn fibers were used as a model system for fibrillar Fn as described previously (W. C. Little, M. L. Smith, U. Ebneter, and V. Vogel, “Assay to mechanically tune and optically probe fibrillar fibronectin conformations from fully relaxed to breakage,” Matrix Biology, vol. 27, no. 5, pp. 451-461, June 2008). Fibers containing 5% of photolabeled Fn-Cy5 were deposited onto a stretchable silicone sheet, relaxed to half of their original length, corresponding to a total 7% molecular strain and after a blocking step with 4% bovine serum albumin in PBS, they were incubated with different concentrations of Alexa488 fluorescently labeled FnBPA5 to obtain a binding curve.
Manually pulled Fn fiber samples were imaged with an Olympus FV1000 confocal microscope using a 40× water immersion objective with a numerical aperture of 0.9. Alexa488-FnBPA5 and Fn-Cy5 channels were imaged with a 512×512 pixel resolution and photomultiplier tube voltage and laser powers were kept constant within an experiment.
Images were analyzed using Fiji-ImageJ and Matlab (MathWorks, Natick, Mass., USA). […] Dark current values were subtracted from images and pixels with intensities below a cutoff threshold and at saturation were excluded from analysis. Approximately 10 fibers were imaged per experimental condition and each of these conditions was done in triplicate. […] Data points were fit using the Hill model assuming non-cooperative binding (using the below equation) and plot using Origin.
To assess binding constant of Alexa488-FnBPA5 and of its scrambled analogue to Fn fibers a fiber stretch assay as described above and before (Little et al., Matrix Biology, vol. 27, no. 5, pp. 451-461, June 2008) was used. Fn fibers are manually pulled from a Fn solution containing 5% fluorophore labeled Fn and deposited onto a silicone membrane. Silicone membranes can then be stretched or relaxed to desired mechanical strain state.
Peptide fluorescence intensity normalized against the Cy5-intensity from the Fn-fibers for different peptide concentrations was assessed. Intensity ratio of 10 μM FnBPA5-488 was defined as saturated and all other intensity ratios were normalized with this factor.

PC-3 xenografts [4] = tested on: PC-3 xenografts
Method: (§1) PC-3 cells (human prostate carcinoma cell line, ACC-465, DSMZ, Braunschweig, Germany) were cultured in Roswell Park Memorial Institute 1640 medium (Amimed, Bioconcept, Switzerland). Cells were cultured as monolayers at 37° C. in a humidified atmosphere containing 5% CO2.
(§2) In vivo experiments were approved by the local veterinarian department and conducted in accordance with the Swiss law for animal protection. The 3-5 weeks-old female CD1 nude mice were purchased from Charles River (Germany). After 5-7 days acclimatisation period, the tumor cells were subcutaneously inoculated in both shoulders of the mice (3*106-1*107 cells in 100-150 μL PBS per side). Experiments were performed 3-4 weeks after inoculation.
SPECT/CT experiments were performed using a 4-head multiplexing multipinhole camera (NanoSPECT/CTplus, Bioscan Inc., Washington D.C., USA). CT scans were performed with a tube voltage of 45 kV and a tube current of […]. SPECT scans at 24, 72 and 96 hours post injection were obtained with an acquisition time of 20-90 sec. per view resulting in a total scanning time of 20-45 min per mouse.
The distribution of ^111In-radiolabeled FnBPA5 peptide injected into the tail vein of a living mouse was monitored by means of SPECT/CT for a period of 96 hours. […] (2.4 nmol, 100 μL PBS) into the tail vein. […] SPECT images were reconstructed using HiSPECT software (Scivis GmbH, Goettingen, Germany). The images were reconstituted and processed with InVivoScope® software (BioscanInc., Washington D.C., USA) and zoom in videos were generated using Adobe Flash.
To visualize additional binding of the tracer to tissues throughout the body, the kidneys were subsequently removed from the sacrificed mice and the scan was repeated.

N-terminal Fn fragments = N-terminal Fn fragments (Homo sapiens, UniProt P02751); conditions: literature value, Meenan et al. 2007; read-out: Kd to N-terminal Fn fragments in solution; cited from earlier work
soluble plasma Fn = experiment: Fluorescence anisotropy titration (fluorescence polarization); type: binding, human; conditions: 100 nM Alexa-488 peptide in PBS, Fn 0 to 1.4 μM, 20° C.; read-out: dissociation constant Kd to soluble plasma Fn
Method: The binding affinities of Fn to FnBPA5 were determined in three independent measurements by anisotropy titrations in a Cary Eclipse Fluorescence Spectrophotometer (Agilent Technologies) equipped with automated polarizers. FnBPA5 and its scrambled derivative were synthesized with an N-terminal Alexa-488 dye. The anisotropy of 100 nM Alexa-488 labelled peptide was measured in PBS at Fn concentrations ranging from 0 to 1.4 μM. Excitation and emission were at λex 480 nm and λem 520 nm respectively with both slit 10 nm, 20° C., 5 s signal acquisition and g=1.4. The Kd values were determined by fitting the data to a one-site-binding model using Origin 7 (OriginLab Northampton, Mass., USA).
With higher Fn concentration an increasing amount of peptide is bound to Fn leading to a shift in fluorescence anisotropy.

in vivo = conditions: female, CD1 nude, mouse, iv, 150 kBq, total radioactivity
Method: as §1, §2
(§3) The tissue-specific peptide pharmacokinetics, particularly in cancer stroma, were assessed in groups of 4 PC-3-bearing mice that were injected with approximately 150 kBq ^111In-FnBPA5 respectively ^111In-scraFnBPA5 (2.4 nmol/[…] PBS) into the tail vein and biodistribution of peptides was analyzed at different time points (1, 4, 24 and 96 hours post injection (p.i. and after sacrification)) by means of percentage of injected activity per gram tissue (% IA/g).

PC-3 xenografts [5] = experiment: In vivo blocking study with pre-injected unlabeled FnBPA5; design: species or system mouse; conditions: for effect of pre-injection of unlabeled FnBPA5 on accumulation: approximately 10-fold excess unlabeled FnBPA5, 4 hour post-injection
Method: (A) Biodistribution of FnBPA5 in PC-3 bearing mice was monitored at different time points in various organs. […] (C) Blocking studies were performed and uptake was analyzed 4 hour post-injection.
as §3

relaxed Fn fibers = experiment: Displacement assay on manually pulled Fn fibers against FnBPA5-Alexa488; type: binding, human; conditions: cold labeled competitor
Method: Relaxed Fn fibers were incubated with FnBPA5-Alexa488 peptide, washed and then incubated with different concentrations of FnBPA5-In to measure the concentration of competitor.
To assess whether the presence of the chelator for the radiolabeled ^111In-isotope impairs FnBPA5 binding to manually pulled Fn fibers, a displacement assay was performed using ^natIn-FnBPA5 (cold labeled) against FnBPA5-Alexa488.

[6] = 96 hours post injection, 12 MBq, tail vein
[7] = 96 hours post injection, kidneys removed

Sequence of manually pulled relaxed Fn fibers (fibrillar Fn) (P02751 32-290 limits assumed): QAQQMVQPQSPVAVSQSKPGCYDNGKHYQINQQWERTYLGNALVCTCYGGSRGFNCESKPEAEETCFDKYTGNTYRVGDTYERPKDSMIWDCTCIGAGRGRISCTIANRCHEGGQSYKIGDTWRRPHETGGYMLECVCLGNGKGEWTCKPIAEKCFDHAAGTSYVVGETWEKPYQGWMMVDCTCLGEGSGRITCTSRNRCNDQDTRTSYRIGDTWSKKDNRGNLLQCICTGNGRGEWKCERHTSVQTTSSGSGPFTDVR
Sequence of soluble plasma Fn (P02751 32-290 limits assumed): as above
Sequence of fibrillar Fn in fibroblast ECM (P02751 32-290 limits assumed): as above
Sequence of relaxed Fn fibers (P02751 95-273 limits assumed): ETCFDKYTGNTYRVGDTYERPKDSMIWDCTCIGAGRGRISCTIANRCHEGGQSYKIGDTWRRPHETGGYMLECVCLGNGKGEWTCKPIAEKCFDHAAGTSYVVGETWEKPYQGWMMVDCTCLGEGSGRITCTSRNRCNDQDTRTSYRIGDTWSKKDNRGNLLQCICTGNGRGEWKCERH
Sequence of N-terminal Fn fragments (P02751 52-272 limits assumed): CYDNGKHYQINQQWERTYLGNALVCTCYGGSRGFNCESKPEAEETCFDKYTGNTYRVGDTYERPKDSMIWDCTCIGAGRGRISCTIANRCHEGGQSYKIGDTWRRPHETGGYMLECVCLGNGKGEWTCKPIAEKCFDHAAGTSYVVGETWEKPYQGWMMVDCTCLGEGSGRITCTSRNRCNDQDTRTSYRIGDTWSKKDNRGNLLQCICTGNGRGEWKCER

Molecule: scraFnBPA5: Negative control of FnBPA5 with scrambled sequence (SEQ ID NO 296) (CGSEQEDLTGTKVDFGETIVVNEATETVTSGSTHGTKV) [reference compound]
- binding to fibrillar Fn in fibroblast ECM [1]: unspecificly attached to the matrix
- plasma stability [2]: high stability
- binding to manually pulled Fn fibers (peptide signal) [3]: within the background noise
- SPECT/CT kidney uptake (PC-3 xenografts [4]; mouse, in vivo): dominant kidney uptake
- SPECT/CT uptake in other organs after kidney removal (PC-3 xenografts [4]; mouse, in vivo): does not show any specific uptake in other organs

Molecule: CGGGQVTTESNLVEFDEESTKGIVTGAVSDHTTVEDTK [FnBPA5]
- binding to fibrillar Fn in fibroblast ECM [1]: specific binding
- Kd (N-terminal Fn fragments): 44.2 nM
- plasma stability ([2]; 37° C., blood plasma and water, 1 hour time point): high stability
- Kd (soluble plasma Fn): 75 nM
- binding to manually pulled Fn fibers (peptide signal) [3]: specific peptide binding; also recorded: significantly higher binding; also recorded: much stronger than the scrambled control derivative
- Kd ([3]; relaxed fibers, 7% molecular strain, Alexa488-labelled peptide, Hill fit, read-out: dissociation constant Kd to manually pulled relaxed Fn fibers): 28 nM
- SPECT/CT kidney uptake (PC-3 xenografts [4]; [6]): dominant kidney uptake
- SPECT/CT uptake in other organs after kidney removal (PC-3 xenografts [4]; [7]): uptake in tumors and liver

Molecule: CC[C@H](C)[C@H](NC(=O)CNC(=O)[C@H](CCCCN)NC(=O)[C@@H](NC(=O)[C@H](CO)NC(=O)[C@H](CCC(=O)O)NC(=O)[C@H](CCC(=O)O)NC(=O)[C@H](CC(=O)O)NC(=O)[C@H](Cc1ccccc1)NC(=O)[C@H](CCC(=O)O)NC(=O)[C@@H](NC(=O)[C@H](CC(C)C)NC(=O)[C@H](CC(N)=O)NC(=O)[C@H](CO)NC(=O)[C@H](CCC(=O)O)NC(=O)[C@@H](NC(=O)[C@@H](NC(=O)[C@@H](NC(=O)[C@H](CCC(N)=O)NC(=O)CNC(=O)CNC(=O)CNC(=O)[C@@H](N)CSC1CC(=O)N(CCNC(=O)CCC(C(=O)O)N2CCN(CC(=O)O)CCN(CC(=O)O)CC2)C1=O)C(C)C)[C@@H](C)O)[C@@H](C)O)C(C)C)[C@@H](C)O)C(=O)N[C@H](C(=O)N[C@H](C(=O)NCC(=O)N[C@@H](C)C(=O)N[C@H](C(=O)N[C@@H](CO)C(=O)N[C@@H](CC(=O)O)C(=O)N[C@@H](Cc1c[nH]cn1)C(=O)N[C@H](C(=O)N[C@H](C(=O)N[C@H](C(=O)N[C@@H](CCC(=O)O)C(=O)N[C@@H](CC(=O)O)C(=O)N[C@H](C(=O)N[C@@H](CCCCN)C(=O)O)[C@@H](C)O)C(C)C)[C@@H](C)O)[C@@H](C)O)C(C)C)[C@@H](C)O)C(C)C (stereo partly drawn) [^111In-FnBPA5, metal not drawn] (H-C(X1)GGGQVTTESNLVEFDEESTKGIVTGAVSDHTTVEDTK-OH; N-terminus and C-terminus assumed)
- tissue uptake at 1 h (in vivo; kidney accumulation, kidneys, 1 hour p.i. (maximum)): 141 ± 18.1 %ID/g
- tissue uptake at 1 h (in vivo; tumor uptake, PC-3 tumor, 1 h p.i. (maximum)): 4.74 ± 0.77 %ID/g
- plasma stability, peptide intact ([2]; human blood plasma, 37° C., after 72 hours): still intact
- effect of pre-injection of unlabeled FnBPA5 on accumulation (PC-3 xenografts [5]): significant reduction in the uptake of ^111In-FnBPA5 in both liver and tumor
- uptake decrease in liver by blocking (PC-3 xenografts [5]; pre-injection of 100 μg unlabeled FnBPA5, 4 hour post-injection, liver): 58.2%
- uptake decrease in tumor tissue by blocking (PC-3 xenografts [5]; pre-injection of 100 μg unlabeled FnBPA5, 4 hour post-injection, tumor): 35.6%
- SPECT/CT kidney uptake (PC-3 xenografts [4]; [6]): mainly accumulated in the kidneys
- SPECT/CT uptake in other organs after kidney removal (PC-3 xenografts [4]; [7]): predominant uptake in tumor and liver

Molecule: Alexa 488-FnBPA5: FnBPA5 with N-terminal Alexa-488 dye ({Alexa 488}-CGGGQVTTESNLVEFDEESTKGIVTGAVSDHTTVEDTK)
- Kd (soluble plasma Fn): 75 nM

Molecule: ^natIn-FnBPA5: Cold labeled (natural indium) chelator-conjugated FnBPA5 (C(NODAGA′)GGGQVTTESNLVEFDEESTKGIVTGAVSDHTTVEDTK; also: natural indium complexed by chelator)
- IC50 (relaxed Fn fibers): 49 nM

Molecule: CC[C@H](C)[C@H](NC(=O)[C@@H](NC(=O)[C@H](CCC(=O)O)NC(=O)CNC(=O)[C@H](Cc1ccccc1)NC(=O)[C@H](CC(=O)O)NC(=O)[C@@H](NC(=O)[C@H](CCCCN)NC(=O)[C@@H](NC(=O)CNC(=O)[C@@H](NC(=O)[C@H](CC(C)C)NC(=O)[C@H](CC(=O)O)NC(=O)[C@H](CCC(=O)O)NC(=O)[C@H](CCC(N)=O)NC(=O)[C@H](CCC(=O)O)NC(=O)[C@H](CO)NC(=O)CNC(=O)[C@@H](N)CSC1CC(=O)N(CCNC(=O)CCC(C(=O)O)N2CCN(CC(=O)O)CCN(CC(=O)O)CC2)C1=O)[C@@H](C)O)[C@@H](C)O)C(C)C)[C@@H](C)O)C(=O)N[C@H](C(=O)N[C@H](C(=O)N[C@@H](CC(N)=O)C(=O)N[C@@H](CCC(=O)O)C(=O)N[C@@H](C)C(=O)N[C@H](C(=O)N[C@@H](CCC(=O)O)C(=O)N[C@H](C(=O)N[C@H](C(=O)N[C@H](C(=O)N[C@@H](CO)C(=O)NCC(=O)N[C@@H](CO)C(=O)N[C@H](C(=O)N[C@@H](Cc1c[nH]cn1)C(=O)NCC(=O)N[C@H](C(=O)N[C@@H](CCCCN)C(=O)N[C@H](C(=O)O)C(C)C)[C@@H](C)O)[C@@H](C)O)[C@@H](C)O)C(C)C)[C@@H](C)O)[C@@H](C)O)C(C)C)C(C)C (stereo partly drawn) [^111In-scraFnBPA5, metal not drawn, reference compound] (H-C(X1)GSEQEDLTGTKVDFGETIVVNEATETVTSGSTHGTKV-OH; N-terminus and C-terminus assumed)
- tissue uptake at 1 h (in vivo; kidney accumulation): 164 ± 18.9 %ID/g
- effect of pre-injection of unlabeled FnBPA5 on accumulation (PC-3 xenografts [5]): no significant differences
- SPECT/CT kidney uptake (PC-3 xenografts [4]; mouse, in vivo): mainly accumulated in the kidneys
- SPECT/CT uptake in other organs after kidney removal (PC-3 xenografts [4]; mouse, in vivo): no uptake into other tissues was visible
